Values of other authors, collected in patent US9622975B2, “Pharmaceutical composition” (Novartis AG, priority 2005, dated 2017).

Legend:
[1] = in vivo
[2] = especially in the alkaline conditions of the intestine

| SMILES | absorbed by the gastro-intestinal tract [1] | water solubility [2] |
| --- | --- | --- |
| O=C(O)CCCCCCCCCNC(=O)c1ccccc1O [SNAD, N-(10-[2-hydroxybenzoyl]amino) decanoic acid] | greater than 90% |  |
| O=C(O)CCCCCCCNC(=O)c1cc(Cl)ccc1O [Example 5-CNAC, N-(5-chlorosalicyloyl)-8-aminocaprylic acid] |  | very water soluble |
| O=C(O)CCCCCCCNC(=O)c1ccccc1O [SNAC, N-(8-[2-hydroxybenzoyl]amino) caprylic acid] |  | very water soluble |
